Measured values from PubChem BioAssay AID2060326 (Molecular Pharmacology Branch, DTP, NCI, 2025).

System: MDA-MB-468 multi-cell spheroids, viability
Test: Anticancer human tumor MDA-MB-468 cell line growth inhibition [IpAb];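 further: spheroids exposed to agents for seven days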;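 on viability, T/C: 100% = DMSO vehicle control viability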
Conditions: for IC50: curve of first compound; for viability, T/C: stronger effect = lower value
Procedure, shortened: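 Multi-cell spheroids of 60% tumour cells, 25% HUVEC and 15% MSC in ultra-low-attachment U-bottom wells, treated with agents combined with ipatasertib or abemaciclib. Half-log ranges top out near clinical Cmax, or 10 microM when Cmax is unknown.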

CC(=O)c1c(C)c2cnc(Nc3ccc(N4CCNCC4)cn3)nc2n(C2CCCC2)c1=O + CCN1CCN(Cc2ccc(Nc3ncc(F)c(-c4cc(F)c5nc(C)n(C(C)C)c5c4)n3)nc2)CC1
IC50 (second compound 0.01 µM): > 0.3 µM | IC50 (second compound 0.0316 µM): > 0.3 µM | IC50 (second compound 0.1 µM): > 0.3 µM | IC50 (second compound 0.316 µM): > 0.3 µM | IC50 (second compound 1 µM): > 0.3 µM | viability, T/C (second compound 0.01 µM, first compound 0.000949 µM): 99.7% | viability, T/C (second compound 0.01 µM, first compound 0.003 µM): 97.4% | viability, T/C (second compound 0.01 µM, first compound 0.00949 µM): 93.6% | viability, T/C (second compound 0.01 µM, first compound 0.03 µM): 88.4% | viability, T/C (second compound 0.01 µM, first compound 0.0949 µM): 84% | viability, T/C (second compound 0.01 µM, first compound 0.3 µM): 96.5% | viability, T/C (second compound 0.0316 µM, first compound 0.000949 µM): 92.2% | viability, T/C (second compound 0.0316 µM, first compound 0.003 µM): 99.2% | viability, T/C (second compound 0.0316 µM, first compound 0.00949 µM): 85.5% | viability, T/C (second compound 0.0316 µM, first compound 0.03 µM): 89.1% | viability, T/C (second compound 0.0316 µM, first compound 0.0949 µM): 82.6% | viability, T/C (second compound 0.0316 µM, first compound 0.3 µM): 86.6% | viability, T/C (second compound 0.1 µM, first compound 0.000949 µM): 101% | viability, T/C (second compound 0.1 µM, first compound 0.003 µM): 96.1% | viability, T/C (second compound 0.1 µM, first compound 0.00949 µM): 90.8% | viability, T/C (second compound 0.1 µM, first compound 0.03 µM): 92.8% | viability, T/C (second compound 0.1 µM, first compound 0.0949 µM): 85.3% | viability, T/C (second compound 0.1 µM, first compound 0.3 µM): 95.7% | viability, T/C (second compound 0.316 µM, first compound 0.000949 µM): 106% | viability, T/C (second compound 0.316 µM, first compound 0.003 µM): 93.9% | viability, T/C (second compound 0.316 µM, first compound 0.00949 µM): 93.7% | viability, T/C (second compound 0.316 µM, first compound 0.03 µM): 83.7% | viability, T/C (second compound 0.316 µM, first compound 0.0949 µM): 88% | viability, T/C (second compound 0.316 µM, first compound 0.3 µM): 108% | viability, T/C (second compound 1 µM, first compound 0.000949 µM): 74.7% | viability, T/C (second compound 1 µM, first compound 0.003 µM): 75% | viability, T/C (second compound 1 µM, first compound 0.00949 µM): 77.5% | viability, T/C (second compound 1 µM, first compound 0.03 µM): 71.4% | viability, T/C (second compound 1 µM, first compound 0.0949 µM): 83.1% | viability, T/C (second compound 1 µM, first compound 0.3 µM): 74.6%

CCCS(=O)(=O)Nc1ccc(F)c(C(=O)c2c[nH]c3ncc(-c4ccc(Cl)cc4)cc23)c1F + CC(C)NCC(C(=O)N1CCN(c2ncnc3c2C(C)CC3O)CC1)c1ccc(Cl)cc1
IC50 (second compound 0.1 µM): > 10 µM | IC50 (second compound 0.316 µM): 9.96 µM | IC50 (second compound 1 µM): 0.498 µM | IC50 (second compound 3.16 µM): < 0.0316 µM | IC50 (second compound 10 µM): < 0.0316 µM | viability, T/C (second compound 0.1 µM, first compound 0.0316 µM): 86.3% | viability, T/C (second compound 0.1 µM, first compound 0.1 µM): 87.3% | viability, T/C (second compound 0.1 µM, first compound 0.316 µM): 98.5% | viability, T/C (second compound 0.1 µM, first compound 1 µM): 98% | viability, T/C (second compound 0.1 µM, first compound 3.16 µM): 71.7% | viability, T/C (second compound 0.1 µM, first compound 10 µM): 50.1% | viability, T/C (second compound 0.316 µM, first compound 0.0316 µM): 62.2% | viability, T/C (second compound 0.316 µM, first compound 0.1 µM): 60.7% | viability, T/C (second compound 0.316 µM, first compound 0.316 µM): 62.5% | viability, T/C (second compound 0.316 µM, first compound 1 µM): 74.8% | viability, T/C (second compound 0.316 µM, first compound 3.16 µM): 53.3% | viability, T/C (second compound 0.316 µM, first compound 10 µM): 39.3% | viability, T/C (second compound 1 µM, first compound 0.0316 µM): 58.4% | viability, T/C (second compound 1 µM, first compound 0.1 µM): 53.6% | viability, T/C (second compound 1 µM, first compound 0.316 µM): 52.6% | viability, T/C (second compound 1 µM, first compound 1 µM): 46% | viability, T/C (second compound 1 µM, first compound 3.16 µM): 40.1% | viability, T/C (second compound 1 µM, first compound 10 µM): 27.8% | viability, T/C (second compound 3.16 µM, first compound 0.0316 µM): 35.7% | viability, T/C (second compound 3.16 µM, first compound 0.1 µM): 34.1% | viability, T/C (second compound 3.16 µM, first compound 0.316 µM): 29.4% | viability, T/C (second compound 3.16 µM, first compound 1 µM): 31.3% | viability, T/C (second compound 3.16 µM, first compound 3.16 µM): 30.1% | viability, T/C (second compound 3.16 µM, first compound 10 µM): 18.6% | viability, T/C (second compound 10 µM, first compound 0.0316 µM): 17.3% | viability, T/C (second compound 10 µM, first compound 0.1 µM): 18.3% | viability, T/C (second compound 10 µM, first compound 0.316 µM): 18.9% | viability, T/C (second compound 10 µM, first compound 1 µM): 16.9% | viability, T/C (second compound 10 µM, first compound 3.16 µM): 13.7% | viability, T/C (second compound 10 µM, first compound 10 µM): 2.03%
